What was measured:
[1] = biological target: Cyclin-dependent kinase 4/cyclin D1 (Homo sapiens, UniProt P11802); experiment: Inhibition of CDK4/cyclin D1; assay type: protein-complex assay
[2] = biological target: Cyclin-dependent kinase 7/ cyclin H (Homo sapiens, UniProt P50613); experiment: Inhibition of CDK7/cyclin H; assay type: protein-complex assay
[3] = Inhibition of PKA
A2780 [4] = experiment: Growth inhibition of cisplatin-susceptible human A2780 cells after 96 hrs by sulforhodamine B assay; assay type: functional; settings: A2780, 96 h
A2780 [5] = experiment: Growth inhibition of cisplatin-resistant human A2780 cells after 96 hrs by sulforhodamine B assay; assay type: functional; settings: A2780, 96 h
CH1 [6] = experiment: Growth inhibition of doxorubicin-susceptible human CH1 cells after 96 hrs by sulforhodamine B assay; assay type: functional; settings: CH1, 96 h
CH1 [7] = experiment: Growth inhibition of doxorubicin-resistant human CH1 cells after 96 hrs by sulforhodamine B assay; assay type: functional; settings: CH1, 96 h
HCT-116 = experiment: Growth inhibition of human HCT116 cells after 96 hrs by sulforhodamine B assay; assay type: functional; settings: HCT-116, 96 h
HT-29 = experiment: Growth inhibition of human HT-29 cells after 96 hrs by sulforhodamine B assay; assay type: functional; settings: HT-29, 96 h
KM12 = experiment: Growth inhibition of human KM12 cells after 96 hrs by sulforhodamine B assay; assay type: functional; settings: KM12, 96 h
[8] = biological target: Mitogen-activated protein kinase 1 (Homo sapiens, UniProt P28482); experiment: Inhibition of ERK2
Chain of Mitogen-activated protein kinase 1 (P28482 whole entry): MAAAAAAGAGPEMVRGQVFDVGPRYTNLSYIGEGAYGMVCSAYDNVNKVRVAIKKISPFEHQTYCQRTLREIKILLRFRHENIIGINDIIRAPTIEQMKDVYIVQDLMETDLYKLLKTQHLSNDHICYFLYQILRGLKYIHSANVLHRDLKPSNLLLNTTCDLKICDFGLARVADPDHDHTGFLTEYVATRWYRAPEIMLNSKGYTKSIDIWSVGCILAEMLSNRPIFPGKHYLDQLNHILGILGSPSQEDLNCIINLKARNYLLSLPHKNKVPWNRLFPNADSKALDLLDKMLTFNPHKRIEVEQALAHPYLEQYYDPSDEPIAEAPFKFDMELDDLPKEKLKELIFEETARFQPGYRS

[9] = Metabolic stability in mouse liver microsomes assessed as compound metabolized at 10 uM after 30 mins by LC-MS analysis; assay type: ADME, Microsome; settings: read-out: Activity
[10] = biological target: Cyclin-dependent kinase 2/cyclin E1 (Homo sapiens, UniProt P24941); experiment: Inhibition of CDK2/cyclin E; assay type: protein-complex assay
[11] = biological target: Cyclin-dependent kinase 1/cyclin B1 (Homo sapiens, UniProt P06493); experiment: Inhibition of CDK1/cyclin B; assay type: protein-complex assay
Chain of Cyclin-dependent kinase 1/cyclin B1 (P06493 whole entry): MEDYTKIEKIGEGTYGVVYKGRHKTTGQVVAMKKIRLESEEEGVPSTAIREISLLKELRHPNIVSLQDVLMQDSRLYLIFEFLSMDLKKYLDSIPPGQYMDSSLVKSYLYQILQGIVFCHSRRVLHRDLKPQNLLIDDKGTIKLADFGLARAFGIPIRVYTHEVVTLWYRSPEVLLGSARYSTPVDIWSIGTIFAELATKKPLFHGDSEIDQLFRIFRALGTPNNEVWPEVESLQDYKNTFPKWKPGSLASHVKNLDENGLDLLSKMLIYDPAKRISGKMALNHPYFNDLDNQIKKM
Chain of Cyclin-dependent kinase 1/cyclin B1 (P14635 whole entry, further chain): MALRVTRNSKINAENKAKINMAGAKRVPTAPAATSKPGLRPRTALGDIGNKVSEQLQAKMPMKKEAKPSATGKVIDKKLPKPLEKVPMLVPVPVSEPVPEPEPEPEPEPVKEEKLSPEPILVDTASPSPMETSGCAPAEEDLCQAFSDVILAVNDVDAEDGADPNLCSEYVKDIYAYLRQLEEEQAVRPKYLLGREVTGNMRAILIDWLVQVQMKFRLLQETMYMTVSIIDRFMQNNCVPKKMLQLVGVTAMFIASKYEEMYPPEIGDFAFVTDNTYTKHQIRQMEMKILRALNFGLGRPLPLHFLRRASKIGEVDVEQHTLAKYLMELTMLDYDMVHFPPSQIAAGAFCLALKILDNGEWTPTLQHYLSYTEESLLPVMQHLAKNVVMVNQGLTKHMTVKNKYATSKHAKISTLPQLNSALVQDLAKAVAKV

Chain of Cyclin-dependent kinase 7/ cyclin H (P51946 whole entry): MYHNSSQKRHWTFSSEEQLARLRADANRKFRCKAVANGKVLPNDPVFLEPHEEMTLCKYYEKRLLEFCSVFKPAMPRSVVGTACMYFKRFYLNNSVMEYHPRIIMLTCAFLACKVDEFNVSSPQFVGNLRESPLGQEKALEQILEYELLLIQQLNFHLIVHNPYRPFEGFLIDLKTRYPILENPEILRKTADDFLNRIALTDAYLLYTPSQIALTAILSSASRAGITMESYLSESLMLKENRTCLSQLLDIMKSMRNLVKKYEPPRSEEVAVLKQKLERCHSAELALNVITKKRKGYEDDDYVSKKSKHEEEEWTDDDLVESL
Chain of Cyclin-dependent kinase 7/ cyclin H (P50613 whole entry): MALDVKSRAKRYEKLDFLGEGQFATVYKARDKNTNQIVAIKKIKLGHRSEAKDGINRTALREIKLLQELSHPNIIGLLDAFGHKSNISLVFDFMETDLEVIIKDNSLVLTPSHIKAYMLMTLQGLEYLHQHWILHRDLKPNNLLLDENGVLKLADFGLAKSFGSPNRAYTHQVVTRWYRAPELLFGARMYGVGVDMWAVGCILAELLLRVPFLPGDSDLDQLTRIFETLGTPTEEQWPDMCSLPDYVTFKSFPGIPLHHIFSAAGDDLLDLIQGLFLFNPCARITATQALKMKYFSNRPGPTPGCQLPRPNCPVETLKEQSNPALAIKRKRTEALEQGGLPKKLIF
Chain of Cyclin-dependent kinase 4/cyclin D1 (P11802 whole entry): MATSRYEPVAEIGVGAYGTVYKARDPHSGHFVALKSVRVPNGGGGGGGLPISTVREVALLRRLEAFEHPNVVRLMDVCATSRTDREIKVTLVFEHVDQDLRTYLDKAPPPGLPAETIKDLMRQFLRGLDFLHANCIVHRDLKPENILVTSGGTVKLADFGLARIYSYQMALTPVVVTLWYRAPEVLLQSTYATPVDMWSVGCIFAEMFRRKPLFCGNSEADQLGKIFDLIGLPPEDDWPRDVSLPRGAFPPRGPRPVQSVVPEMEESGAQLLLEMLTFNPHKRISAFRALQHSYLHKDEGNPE
Chain of Cyclin-dependent kinase 4/cyclin D1 (P24385 whole entry, further chain): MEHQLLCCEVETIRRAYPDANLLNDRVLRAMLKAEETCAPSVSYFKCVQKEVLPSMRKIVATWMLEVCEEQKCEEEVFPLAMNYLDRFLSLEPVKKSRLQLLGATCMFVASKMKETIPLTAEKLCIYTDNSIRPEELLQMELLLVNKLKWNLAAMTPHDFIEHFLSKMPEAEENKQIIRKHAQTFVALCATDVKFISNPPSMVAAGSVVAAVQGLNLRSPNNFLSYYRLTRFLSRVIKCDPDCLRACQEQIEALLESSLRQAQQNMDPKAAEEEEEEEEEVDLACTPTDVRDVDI

Structure (SMILES)	IC50 [1]	IC50 [2]	IC50 [3]	GI50 (A2780 [4])	GI50 (A2780 [5])	GI50 (CH1 [6])	GI50 (CH1 [7])	GI50 (HCT-116)	GI50 (HT-29)	GI50 (KM12)	IC50 [8]	metabolised at 0.5 h, 10 µM [9]	IC50 [10]	IC50 [11]
CC[C@H](CO)Nc1nc(NCc2ccccn2)c2ncn(C(C)C)c2n1	3.8 µM	40 nM	> 50 µM	21.5 µM	28 µM	26 µM	23 µM	26 µM	54 µM	38 µM	–	–	–	–
CC[C@H](Nc1nc(NCc2ccccc2)c2ncn(C(C)C)c2n1)C(C)O (mixture of isomers)	9 µM	690 nM	> 50 µM	3.3 µM	3.4 µM	1.75 µM	1.28 µM	1.45 µM	4.9 µM	1.9 µM	29 µM	67%	–	–
CC[C@@H](Nc1nc(NCc2cccnc2)c2ncn(C(C)C)c2n1)C(O)C(C)C (mixture of isomers)	21 µM	2200 nM	> 200 µM	23 µM	37 µM	30 µM	25 µM	25 µM	32 µM	31 µM	–	36%	690 nM	20 µM
CC[C@H](Nc1nc(NCc2cccnc2)c2ncn(C(C)C)c2n1)C(C)O (mixture of isomers)	–	–	> 200 µM	0.78 µM	1 µM	0.92 µM	1.5 µM	0.76 µM	1.1 µM	1.15 µM	20 µM	33%	–	2.2 µM
CC[C@H](CO)Nc1nc(NCc2cccnc2)c2ncn(C(C)C)c2n1	20 µM	180 nM	> 50 µM	5.2 µM	6.6 µM	4.8 µM	16.5 µM	4.5 µM	5.8 µM	5.5 µM	24 µM	54%	–	–
CCC(O)[C@H](CC)Nc1nc(NCc2ccccc2)c2ncn(C(C)C)c2n1 (mixture of isomers)	20 µM	1100 nM	> 200 µM	16 µM	21 µM	–	–	20 µM	23 µM	27 µM	–	67%	–	–
CC[C@@H](Nc1nc(NCc2cccnc2)c2ncn(C(C)C)c2n1)C(C)O (mixture of isomers)	–	–	> 200 µM	3.1 µM	4.4 µM	4.5 µM	5.2 µM	2.5 µM	4.7 µM	4.7 µM	23 µM	10%	–	4.9 µM
CC[C@H](Nc1nc(NCc2cccnc2)c2ncn(C(C)C)c2n1)C(O)C(C)(C)C (mixture of isomers)	13 µM	3500 nM	> 200 µM	18 µM	22 µM	23 µM	18.5 µM	24 µM	22 µM	19 µM	–	50%	390 nM	21 µM
CC[C@@H](Nc1nc(NCc2ccccn2)c2ncn(C(C)C)c2n1)C(C)(C)O	–	–	> 200 µM	34 µM	> 50 µM	> 50 µM	> 50 µM	> 50 µM	> 50 µM	> 50 µM	–	73%	–	–
CCC(O)[C@@H](CC)Nc1nc(NCc2ccccn2)c2ncn(C(C)C)c2n1 (mixture of isomers)	–	–	> 200 µM	22 µM	40 µM	27 µM	26 µM	29 µM	> 50 µM	45 µM	–	88%	–	–
CC[C@H](Nc1nc(NCc2ccccc2)c2ncn(C(C)C)c2n1)C(O)C(C)C (mixture of isomers)	33 µM	3000 nM	83 µM	20 µM	23 µM	25 µM	24 µM	24 µM	23 µM	25 µM	88 µM	76%	–	–
CC[C@H](Nc1nc(NCc2ccccn2)c2ncn(C(C)C)c2n1)C(O)C(C)C (mixture of isomers)	–	–	> 200 µM	35 µM	> 50 µM	> 50 µM	> 50 µM	> 50 µM	> 50 µM	> 50 µM	–	23%	–	200 µM
CCC(O)[C@@H](CC)Nc1nc(NCc2cccnc2)c2ncn(C(C)C)c2n1 (mixture of isomers)	25 µM	1100 nM	> 200 µM	6.2 µM	19 µM	18 µM	14.5 µM	10 µM	20 µM	13.5 µM	–	30%	220 nM	12 µM
CC[C@@H](Nc1nc(NCc2ccccc2)c2ncn(C(C)C)c2n1)C(C)(C)O	–	–	191 µM	15 µM	23 µM	23 µM	19.5 µM	20 µM	23 µM	21 µM	–	52%	–	–
CCC(O)[C@@H](CC)Nc1nc(NCc2ccccc2)c2ncn(C(C)C)c2n1 (mixture of isomers)	–	–	139 µM	14.5 µM	21 µM	23 µM	18 µM	26 µM	23 µM	23 µM	–	63%	–	–
CC[C@H](CO)Nc1nc(NCc2ccncc2)c2ncn(C(C)C)c2n1	–	–	> 50 µM	23 µM	22 µM	8.2 µM	–	10 µM	23 µM	7 µM	–	3%	–	–
CC[C@H](Nc1nc(NCc2ccccc2)c2ncn(C(C)C)c2n1)C(C)(C)O	–	–	200 µM	16 µM	22 µM	22 µM	–	16 µM	23 µM	20 µM	–	73%	–	–
CCC(O)[C@H](CC)Nc1nc(NCc2ccccn2)c2ncn(C(C)C)c2n1 (mixture of isomers)	–	–	> 200 µM	21 µM	23 µM	33 µM	26 µM	29 µM	> 50 µM	> 50 µM	–	85%	–	–
CC[C@H](Nc1nc(NCc2ccccn2)c2ncn(C(C)C)c2n1)C(O)C(C)(C)C (mixture of isomers)	–	–	> 200 µM	38 µM	> 50 µM	> 50 µM	47 µM	> 50 µM	28 µM	36 µM	–	97%	–	200 µM
CC[C@H](Nc1nc(NCc2ccccc2)c2ncn(C(C)C)c2n1)C(O)C(C)(C)C (mixture of isomers)	–	–	> 200 µM	21.5 µM	23 µM	26 µM	21.5 µM	27 µM	21.5 µM	19 µM	> 200 µM	74%	–	–
CC[C@@H](Nc1nc(NCc2ccccc2)c2ncn(C(C)C)c2n1)C(C)O (mixture of isomers)	23 µM	390 nM	> 50 µM	6.4 µM	3.8 µM	5 µM	4.6 µM	5.4 µM	18 µM	5.4 µM	43 µM	91%	–	–
CC[C@@H](Nc1nc(NCc2ccccc2)c2ncn(C(C)C)c2n1)C(O)C(C)(C)C (mixture of isomers)	200 µM	–	87 µM	18.5 µM	23 µM	23 µM	19 µM	24 µM	14.5 µM	17 µM	> 200 µM	79%	–	–
CC[C@@H](Nc1nc(NCc2ccccn2)c2ncn(C(C)C)c2n1)C(O)C(C)C (mixture of isomers)	–	–	> 200 µM	40 µM	> 50 µM	> 50 µM	> 50 µM	> 50 µM	> 50 µM	> 50 µM	–	94%	–	–
CC[C@@H](Nc1nc(NCc2ccccn2)c2ncn(C(C)C)c2n1)C(O)C(C)(C)C (mixture of isomers)	–	–	> 200 µM	23 µM	> 50 µM	34 µM	27 µM	29 µM	34 µM	45 µM	–	93%	–	200 µM
CC[C@@H](Nc1nc(NCc2ccccc2)c2ncn(C(C)C)c2n1)C(O)C(C)C (mixture of isomers)	–	–	92 µM	17 µM	21 µM	23 µM	19 µM	22 µM	13 µM	27 µM	> 200 µM	83%	–	–
